Measured values: PubChem BioAssay (NCI)
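Grown in 96-well plates, cells were treated for 48 hours with each compound at five concentrations. Insufficient inhibition: endpoint recorded as highest concentration tested. GI50: concentration for 50% inhibition of growth. TGI: concentration producing complete growth inhibition.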

How the values were obtained:
Test in all cases: DTP human tumour cell line panel, 48 h
[1] = system: OVCAR-4 ovarian
[2] = system: SR leukemia
[3] = system: SK-MEL-28 melanoma
[4] = system: A549 NSCLC
[5] = system: HCT-15 colon
[6] = system: SF-268 CNS
[7] = system: HCC-2998 colon
[8] = system: SN12C renal
[9] = system: SF-295 CNS
[10] = system: MCF7 breast

Compound	TGI [1] [µM]	TGI [2] [µM]	TGI [3] [µM]	TGI [4] [µM]	TGI [5] [µM]	TGI [6] [µM]	TGI [7] [µM]	TGI [8] [µM]	TGI [9] [µM]	TGI [10] [µM]	GI50 [1] [µM]	GI50 [3] [µM]	GI50 [4] [µM]	GI50 [5] [µM]	GI50 [6] [µM]	GI50 [10] [µM]	GI50 [7] [µM]	GI50 [8] [µM]	GI50 [9] [µM]
C[C@]12CCC(=O)C=C1CC[C@@H]1[C@@H]2C(=O)C[C@@]2(C)[C@H]1CC[C@]2(O)C(=O)CO	> 100	> 100	> 100	> 100	> 100	> 100	> 100	> 100	> 100										
CC(NC(=O)C(C)C(=O)NCc1ccc(C(F)(F)F)cc1)C(N)=O (stereo not drawn)		> 100		> 100	> 100	> 100		> 100	> 100	> 100									
Oc1c(I)cc(I)cc1CNCCCN(Cc1ccccn1)Cc1ccccn1	2.31		3.16	3.82	2.79	3.21	1.91	2.12	1.74	3.59	1.02	1.22	1.32	1.13	1.18	1.2	0.983	0.99	0.885
C=C(C)CC1=C(C(=S)NCCO[Si](C)(C)C(C)(C)C)C(OCC)(OCC)C1=O	34.3		34.6	36.9	47.5	47.4		42.2	33.1	35.9									
O=[N+]([O-])c1cccc2nc3ccccc3c(NCCC[N+]3([O-])CCCCC3)c12	1.15		5.11	3.92	> 100	2.22	0.272	1.55	12.6	1.99									
COc1ccc(C2C(C(=O)O)=C(COC(C)=O)Oc3cc4c(cc32)OCO4)cc1 (stereo not drawn)	> 100		> 100	> 100	> 100			> 100	> 100										
Cc1ccc(NC(=O)c2cccc([N+](=O)[O-])c2O)c(C)c1	> 100	> 100	> 100	63.8		> 100	> 100	> 100	74.3										
C/C=C/C=C/C1=NN(c2cccc(S(=O)(=O)O)c2)C2(C1)SCC(=O)N2c1nc2ccccc2s1 (stereo not drawn)	> 100	87.6	> 100	> 100	> 100	> 100	> 100	> 100		> 100									
c1ccc(C(=NNc2nc3ccccc3[nH]2)c2ccccn2)nc1	> 100	0.271	> 100	> 89.9	> 100	> 55.3	28.6		35.4										
Cc1cccc2c(N)c3cccc(C(=O)NCC[N+](C)(C)Cc4sc(N5CCOCC5)nc4[N+](=O)[O-])c3nc12	14.4		> 100	2.55	13.3	> 100	3.41	> 100	14.3	13.5									
COC(=O)C[C@H](COCc1ccccc1)NC(=O)C[C@H](COCc1ccccc1)NC(=O)C[C@H](COCc1ccccc1)NC(=O)OC(C)(C)C	17.4	> 100	> 100	> 100	> 100	> 100		> 100	> 100	28.9									
O=C(CCc1cc(O)cc(O)c1)NCCc1ccc(O)c(O)c1		> 100	> 100	> 100	> 100	> 100	> 100	> 100	> 100	> 100									
O=C1C=CC2(O[C@@H](Cc3ccccc3)[C@H](Cc3ccccc3)O2)C(SC(=O)c2ccccc2)C1 (stereo partly drawn)	4.4	0.807	3.44	16.1	1.71	2.44		3.97	4.28	2.12									
O=c1[nH]c(=O)n(C2CC(O)C(CO)O2)cc1NN=NCc1ccccc1 (stereo not drawn)	> 100	> 100	> 100	> 100	> 100	> 100		> 100	> 100	> 100									
CC(O)(c1ccccc1)c1nccc2ccccc12 (stereo not drawn)	> 100		> 100	> 100	> 100	> 100	> 100	> 100	> 100	> 100									
Cc1cc(S(=O)(=O)O)ccc1N=Nc1ccc(N=Nc2c(O)ccc3ccccc23)c(C)c1	> 100		> 100	> 100	> 100	> 100		> 100	> 100										
